Assay results from US4352803A, “Novel naphthyridine derivatives, intermediates thereof, processes for preparation thereof, and use thereof” (Dainippon Pharmaceutical Co., Ltd., priority 1978, dated 1982).
In brackets after ≈: the same amount, converted by molar mass. Entries after “also recorded” stand apart in the source; their conditions may differ. Where two headings read alike, the source gives them in different places.

What was measured:
[1] = tested on: Salmonella typhimurium 8-9; experiment: In vitro antibacterial activity (MIC), Salmonella typhimurium 8-9; format: cell-based; details: Salmonella enterica, read-out: minimum inhibitory concentration (MIC)
Source text: (§1) (MIC) (μg/ml) Method; Chemotherapy, 22(6), 1126 (1974)

[2] = tested on: Pseudomonas aeruginosa Tsuchijima; experiment: In vitro antibacterial activity (MIC), Pseudomonas aeruginosa Tsuchijima; format: cell-based; details: Pseudomonas aeruginosa Tsuchijima; read-out: minimum inhibitory concentration (MIC)
Source text: as §1

[3] = tested on: Corynebacterium pyogenes C-21; experiment: In vitro antibacterial activity (MIC), Corynebacterium pyogenes C-21; format: cell-based; details: Rhodococcus (subgen. Prescottella) equi, C21; Corynebacterium pyogenes C-21; read-out: minimum inhibitory concentration (MIC)
Source text: as §1

[4] = tested on: Gram-positive and Gram-negative bacteria; experiment: in vivo therapeutic efficacy against systemic infections in mice (overall); parameters: species or system mice (ddY); details: systemic infections with Gram-positive and Gram-negative bacteria
[5] = tested on: Staphylococcus aureus No. 50774; experiment: in vivo efficacy against systemic infection in mice, Staphylococcus aureus No. 50774; details: NO.50774, in Mus musculus, po, 336 h
Description: Male mice (ddY) weighing about 20 g
Intravenous infection with (about
5 × 10^8 cells/mouse) of a bacterial
(§2) Twice, about 5 minutes and 6 hours after infection.

Escherichia coli P-5101 [6] = experiment: in vivo efficacy against systemic infection in mice, Escherichia coli P-5101; details: P5101, in Mus musculus, po, 168 h
Description: Male mice (ddY) weighing about 20 g
Intraperitoneal infection with (about
9 × 10^6 cells/mouse) of a bacterial
(§3) suspension in trypto-soy broth with 4% mucin.
as §2

Proteus morganii Kono = experiment: In vitro antibacterial activity (MIC), Proteus morganii Kono; format: cell-based; details: Morganella morganii, read-out: minimum inhibitory concentration (MIC)
Source text: as §1

Escherichia coli P-5101 [7] = experiment: In vitro antibacterial activity (MIC), Escherichia coli P-5101; format: cell-based
Source text: as §1

Proteus mirabilis P-2381 = experiment: In vitro antibacterial activity (MIC), Proteus mirabilis P-2381; format: cell-based
Source text: as §1

[8] = tested on: Serratia marcescens IFC 3736; experiment: In vitro antibacterial activity (MIC), Serratia marcescens IFC 3736; format: cell-based
Source text: as §1

[9] = tested on: Staphylococcus aureus No. 50774; experiment: In vitro antibacterial activity (MIC), Staphylococcus aureus No. 50774; format: cell-based
Source text: as §1

[10] = tested on: Salmonella enteritidis No. 1891; experiment: In vitro antibacterial activity (MIC), Salmonella enteritidis No. 1891; format: cell-based; details: Salmonella enterica, read-out: minimum inhibitory concentration (MIC)
Source text: as §1

[11] = tested on: Streptococcus pyogenes 65A; experiment: In vitro antibacterial activity (MIC), Streptococcus pyogenes 65A; format: cell-based; details: read-out: minimum inhibitory concentration (MIC)
Source text: as §1

[12] = tested on: Klebsiella pneumoniae No. 13; experiment: In vitro antibacterial activity (MIC), Klebsiella pneumoniae No. 13; format: cell-based
Source text: as §1

[13] = tested on: Shigella flexneri 4a P-330; experiment: In vitro antibacterial activity (MIC), Shigella flexneri 4a P-330; format: cell-based; details: 4AP330, read-out: minimum inhibitory concentration (MIC)
Source text: as §1

[14] = tested on: Gram-positive bacteria and Gram-negative bacteria; experiment: In vitro antibacterial activity against 19 strains of bacteria (overall); format: cell-based; details: comparisons are with compounds of the invention
Source text: as §1

in vivo = details: mouse, in vivo, po
Description: The number of dead mice was counted after 7 days, and the value of median lethal dose (LD50, mg/kg) was calculated in accordance with the Behrens-Kaerber method.

[15] = tested on: Pseudomonas aeruginosa No. 12; experiment: in vivo efficacy against systemic infection in mice, Pseudomonas aeruginosa No. 12; details: NO.12, in Mus musculus, po, 168 h
Description: Male mice (ddY) weighing about 20 g
(3) Pseudomonas aeruginosa No. 12;
(about 5 × 10^3 cells/mouse) of a bacterial
as §3, §2
The numerals in the table show ED50 (mg/kg). ED50 values were

Escherichia coli P-140a = experiment: In vitro antibacterial activity (MIC), Escherichia coli P-140a; format: cell-based; details: read-out: minimum inhibitory concentration (MIC)
Source text: as §1

[16] = tested on: Streptococcus faecalis P-2473; experiment: In vitro antibacterial activity (MIC), Streptococcus faecalis P-2473; format: cell-based; details: Enterococcus faecalis, P2473; Streptococcus faecalis P-2473; read-out: minimum inhibitory concentration (MIC)
Source text: as §1

Shigella flexneri 2a = experiment: In vitro antibacterial activity (MIC), Shigella flexneri 2a; format: cell-based; details: read-out: minimum inhibitory concentration (MIC)
Source text: as §1

[17] = tested on: Pseudomonas aeruginosa No. 12; experiment: In vitro antibacterial activity (MIC), Pseudomonas aeruginosa No. 12; format: cell-based; details: Pseudomonas aeruginosa No. 12; read-out: minimum inhibitory concentration (MIC)
Source text: as §1

[18] = tested on: Escherichia coli NIHJ JC-2; experiment: In vitro antibacterial activity (MIC), Escherichia coli NIHJ JC-2; format: cell-based
Source text: as §1

[19] = tested on: Enterobacter cloacae P-2540; experiment: In vitro antibacterial activity (MIC), Enterobacter cloacae P-2540; format: cell-based
Source text: as §1

[20] = tested on: Staphylococcus aureus 209P JC-1; experiment: In vitro antibacterial activity (MIC), Staphylococcus aureus 209P JC-1; format: cell-based; details: Staphylococcus aureus 209P JC-1; read-out: minimum inhibitory concentration (MIC)
Source text: as §1

[21] = Urinary excretion in dogs; format: in vivo, Beagle dogs; details: dog, urine, po, 25 mg/kg, urine pooled over 24 hours, oral 25 mg/kg
[22] = tested on: Pseudomonas aeruginosa No. 12; experiment: in vivo efficacy on the ascending kidney infection in mice; parameters: species or system mice (ddY-S); details: 120 h; ascending kidney infection with Pseudomonas aeruginosa No. 12; po; mice
Description: Female mice (ddY-S) weighing 22 to 30 g were anesthetized by intravenous injection of sodium pentobarbital at a dose of 50 mg/kg. Through a small suprapubic incision, the urinary bladder was exposed and then infected by injecting 0.1 ml of a 1:10,000 dilution of Pseudomonas aeruginosa No. 12 cultured for 20 hours in trypto-soy broth, using 0.25 ml syringe with 0.25 mm needle. The mice were restrained from drinking water for a period from 1 day before to 1 day after the infection and treated twice a day for 3 days starting on the day of infection. On the 5th day after infection, the kidneys were harvested for the detection of the bacteria, transversely bisected and stamped on King A Agar, which were incubated at 37° C. overnight. No bacterial finding in the kidneys was regarded as protected from the ascending kindey infection. ED50 values were calculated by probit analysis.

Plasma level in dogs = format: in vivo, Beagle dogs; details: dog, plasma
Description: Two male Beagle dogs weighing 12 kg each were orally given a capsule containing one of compounds 1 and 2 at a dose of 25 mg/kg with 200 ml of milk respectively. Blood samples were taken by venipuncture from the two dogs at each 0.5, 1, 2, 3, 6, 8 and 10 hours after administration, and centrifuged individually to separate the plasma.
Drug levels were determined by the thin-layer cup-plate method using Escherichia coli Kp as an indicator organism.

[23] = IFC3736, Serratia marcescens IFC 3736, read-out: minimum inhibitory concentration (MIC)
[24] = Klebsiella pneumoniae No. 13, read-out: minimum inhibitory concentration (MIC)
[25] = Escherichia coli, NIHJJC2, read-out: minimum inhibitory concentration (MIC)
[26] = Enterobacter cloacae, P2540, read-out: minimum inhibitory concentration (MIC)
[27] = P5101, Escherichia coli P-5101, read-out: minimum inhibitory concentration (MIC)
[28] = P2381, Proteus mirabilis P-2381, read-out: minimum inhibitory concentration (MIC)
[29] = Staphylococcus aureus No. 50774, read-out: minimum inhibitory concentration (MIC)
[30] = Salmonella enteritidis No. 1891

SMILES | MIC ([1]; TYPHIMURIUM) [µg/mL] | MIC [2] [µg/mL] | MIC [3] [µg/mL] | therapeutic effect / in vivo antibacterial activity (in words) [4] | ED50 [5] [mg/kg] | ED50 (Escherichia coli P-5101 [6]) [mg/kg] | MIC (Proteus morganii Kono) [µg/mL] | MIC [8, 23] [µg/mL] | MIC [12, 24] [µg/mL] | MIC [13] [µg/mL] | antibacterial activity (in words) [14] | LD50 at 168 h (in vivo) [mg/kg] | ED50 [15] [mg/kg] | MIC (Escherichia coli P-140a; Escherichia coli) [µg/mL] | MIC [16] [µg/mL] | MIC (Shigella flexneri 2a) [µg/mL] | MIC [17] [µg/mL] | MIC [18, 25] [µg/mL] | MIC [19, 26] [µg/mL] | MIC [20] [µg/mL] | further results
CCn1cc(C(=O)O)c(=O)c2cc(Cl)c(N3CCNCC3)cc21 [Compound C, 6-Chloro-1-ethyl-1,4-dihydro-4-oxo-7-(1-piperazinyl)quinoline-3-carboxylic acid] | 0.2 (≈ 0.596 µM) | 3.13 (≈ 9.32 µM) | 1.56 (≈ 4.65 µM) | clearly inferior | ~100 | ~15 | 0.39 (≈ 1.16 µM) | 0.78 (≈ 2.32 µM) | 0.78 (≈ 2.32 µM) | 0.2 (≈ 0.596 µM) | clearly inferior | > 2000 | > 100 | 0.2 (≈ 0.596 µM) | 6.25 (≈ 18.6 µM) | 0.39 (≈ 1.16 µM) | 3.13 (≈ 9.32 µM) | 0.39 (≈ 1.16 µM) | 0.2 (≈ 0.596 µM) | 0.78 (≈ 2.32 µM) | MIC (Escherichia coli P-5101 [7]; Escherichia coli, P5101, read-out: minimum inhibitory concentration (MIC)): 0.2 µg/mL (≈ 0.596 µM); MIC (Proteus mirabilis P-2381; Proteus mirabilis, P2381, read-out: minimum inhibitory concentration (MIC)): 0.39 µg/mL (≈ 1.16 µM); MIC ([9]; Staphylococcus aureus, NO.50774, read-out: minimum inhibitory concentration (MIC)): 1.56 µg/mL (≈ 4.65 µM); MIC ([10]; ENTERITIDIS): 0.2 µg/mL (≈ 0.596 µM); MIC ([11]; Streptococcus pyogenes, 65A): 6.25 µg/mL (≈ 18.6 µM)
CCn1cc(C(=O)O)c(=O)c2cc(F)c(N3CCNCC3)nc21 [Compound 1] |  | 0.39 (≈ 1.22 µM) | 1.56 (≈ 4.87 µM) |  | 10 | 1.8 |  | 0.39 (≈ 1.22 µM) | 0.2 (≈ 0.624 µM) | 0.39 (≈ 1.22 µM) |  | > 4000 | 9 |  | 12.5 (≈ 39 µM) | 0.2 (≈ 0.624 µM) | 0.78 (≈ 2.44 µM) |  |  | 0.78 (≈ 2.44 µM) | MIC ([1]; Salmonella typhimurium 8-9): 0.1 µg/mL (≈ 0.312 µM); MIC (Proteus morganii Kono; Proteus morganii Kono): 0.2 µg/mL (≈ 0.624 µM); MIC (Escherichia coli P-5101 [7]; [27]): 0.1 µg/mL (≈ 0.312 µM); concentration at 24 h [21]: 606000 ng/mL; dose excreted at 24 h ([21]; read-out: urinary recovery): 40.7%; MIC (Proteus mirabilis P-2381; [28]): 0.39 µg/mL (≈ 1.22 µM); ED50 [22]: 2.4 mg/kg; MIC [9, 29]: 0.78 µg/mL (≈ 2.44 µM); concentration at 0.5 h (Plasma level in dogs; 0.5 hr after oral 25 mg/kg, nd: nondetective): 600 ng/mL; concentration at 1 h (Plasma level in dogs; 1 hr after oral 25 mg/kg, nd: nondetective): 2400 ng/mL; concentration at 2 h (Plasma level in dogs; 2 hr after oral 25 mg/kg): 5500 ng/mL; concentration at 3 h (Plasma level in dogs; 3 hr after oral 25 mg/kg): 5900 ng/mL; concentration at 6 h (Plasma level in dogs; 6 hr after oral 25 mg/kg): 4200 ng/mL; concentration at 8 h (Plasma level in dogs; 8 hr after oral 25 mg/kg): 3700 ng/mL; concentration at 10 h (Plasma level in dogs; 10 hr after oral 25 mg/kg): 2400 ng/mL; MIC [10, 30]: 0.1 µg/mL (≈ 0.312 µM); MIC ([11]; Streptococcus pyogenes 65A): 12.5 µg/mL (≈ 39 µM); MIC (Escherichia coli P-140a; P140A, Escherichia coli P-140a): 0.2 µg/mL (≈ 0.624 µM); MIC ([18]; NIHJJC2, Escherichia coli NIHJ JC-2, read-out: minimum inhibitory concentration (MIC)): 0.2 µg/mL (≈ 0.624 µM); MIC ([19]; P2540, Enterobacter cloacae P-2540, read-out: minimum inhibitory concentration (MIC)): 0.2 µg/mL (≈ 0.624 µM)
CCn1cc(C(=O)O)c(=O)c2ccc(N3CCNCC3)nc21 [Compound A, 1-Ethyl-1,4-dihydro-4-oxo-7-(1-piperazinyl)-1,8-naphthyridine-3-carboxylic acid] | 6.25 (≈ 20.7 µM) | 25 (≈ 82.7 µM) | 50 (≈ 165 µM) | clearly inferior | > 100 |  | 6.25 (≈ 20.7 µM) |  |  | 12.5 (≈ 41.3 µM) | much inferior antibacterial activity; also recorded: clearly inferior |  | > 200 | 6.25 (≈ 20.7 µM) | > 100 | 6.25 (≈ 20.7 µM) | 25 (≈ 82.7 µM) | 6.25 (≈ 20.7 µM) | 6.25 (≈ 20.7 µM) | 25 (≈ 82.7 µM) | MIC (Escherichia coli P-5101 [7]; [27]): 3.13 µg/mL (≈ 10.4 µM); MIC (Proteus mirabilis P-2381; [28]): 25 µg/mL (≈ 82.7 µM); MIC ([8]; Serratia marcescens, IFC3736, read-out: minimum inhibitory concentration (MIC)): 12.5 µg/mL (≈ 41.3 µM); MIC [9, 29]: 50 µg/mL (≈ 165 µM); MIC [10, 30]: 1.56 µg/mL (≈ 5.16 µM); MIC ([11]; Streptococcus pyogenes 65A): 50 µg/mL (≈ 165 µM); MIC ([12]; Klebsiella pneumoniae, NO.13, read-out: minimum inhibitory concentration (MIC)): 12.5 µg/mL (≈ 41.3 µM)
